From patent US8450479B2, “3-substituted-4-oxo-3,4-dihydro-imidazo[5,1-d][1,2,3,5-tetrazine-8-carboxylic acid amides and their use” (Pharminox Limited, priority 2007, dated 2013) come the findings set out here.

Holding throughout (type): cell-based
One assay relates to Glioma U373M (MGMT+). Nature of the assay: MTT assay for 7-day toxicity assay. The note with it: Glioma U373M (MGMT+), read-out: GI50. The method, boiled down: (§1)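 MGMT-transfected or vector-control glioma cells were seeded at 650 cells/well, attached overnight, and exposed for 7 days at 37 °C to compound at final 0.5–1000 μM. Viability was read by MTT (0.4 mg/mL, 4 h) formazan absorbance, with a day-0 plate included.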
In general terms: Tetrazolium assays rely on reduction of a dye to a coloured formazan, in cell work by metabolically active cells.

The next assay relates to Glioma SNB19V (MGMT−). Nature of the assay: MTT assay for 7-day toxicity assay. The conditions noted are these: Glioma SNB19V (MGMT−), read-out: GI50. The method in brief: as §1
For a further assay, the system named is Glioma SNB19M (MGMT+). Nature of the assay: MTT assay for 7-day toxicity assay. The conditions noted are these: Glioma SNB19M (MGMT+); read-out: GI50. The method, boiled down:
as §1

In a further assay the test system is Glioma U373V (MGMT low). Briefly: MTT assay for 7-day toxicity assay. The note with it: for GI50: Glioma U373V (MGMT low), read-out: GI50. The method, boiled down:
as §1

Assay [1] has as its system MGMT+ lines SNB 19M and U373M. Briefly: MTT assay, MGMT+ glioma lines. From the text: This assay was first described in Mosmann, T., 1983, “Rapid colorimetric assay for cellular growth and survival: Application to proliferation and cytotoxicity assays”, Journal of Immunological Methods, Vol. 65, Nos. 1-2, pp. 55-63.
Glioma cell lines, SNB19 and U373, both MGMT transfected (i.e., SNB19M and U373M) and vector controls (i.e., SNB19V and U373V); colorectal carcinoma cell lines, HCT116, HT29, and DLD1; melanoma cell line, SKMEL-28; breast cell line, MCF-7; and normal human fetal lung fibroblast cell line, MRC-5; were harvested at 60-80% confluence—during the logarithmic phase of growth.
Following harvesting, cells in suspension were gently syringed through a 23 gauge needle to obtain a near-single cell suspension. The desired cell seeding densities were used and added into 96-well plates in 180 μL culture medium if only one test compound was to be added, or 160 μL if two test compounds were to be added in combination, which were allowed to attach at 37° C. (5% CO2) overnight. For the 7 day assay, the cell seeding density for different cell lines was as follows: SNB19V, SNB19M: 650 cells/well; U373V, U373M: 650 cells/well; SNB19VR, U373VR: 650 cells/well; HCT116, DLD-1, SKMEL-28, MRC-5, MCF-7: 400 cells/well.
The two peripheral lanes were used as blank wells (cell free) and filled with 200 μL of medium in order to minimise medium evaporation from the plate. A separate time zero (T0) plate was set up alongside other plates. […]
After incubation at 37° C., 5% CO2 for 7 days (or immediately for the day 0 plate), cell viability was quantified using the MTT assay. […]
The intensity of absorbance is directly proportional to cell viability. A linear relationship exists between cell number and the amount of formazan and so the mean absorbance determined for each well of the same concentration can be used as a quantitative measure of viable cells compared to the controls. […]

[2] abbreviates: 168 h, 7-day MTT, single determinations.
[3] abbreviates: 7-day MTT, single determinations.

What is called GI50 is the concentration giving 50% growth inhibition.

“And” between values parts separate entries of the source, which are not always exact repeats. Equal values may be shown once. Read-outs that look alike come from different tables or passages of the source.

In the case of `NC(=O)c1ncn2c(=O)n(CNC(=O)OCC3c4ccccc4-c4ccccc43)nnc12` [WW-001, (8-Carbamoyl-4-oxo-imidazo[5,1-d][1,2,3,5]tetrazin-3-ylmethyl)-carbamic acid 9H-fluoren-9-ylmethyl ester], the GI50 is 50 µM and 62.5 µM with Glioma U373M (MGMT+); 64.8 µM and 67.8 µM in the assay with Glioma SNB19V (MGMT−); 71.2 µM and 56 µM in the assay with Glioma SNB19M (MGMT+); 35.8 µM and 60.1 µM in the assay on Glioma U373V (MGMT low). Moreover, the “activity compared with TMZ, in words” value in assay [1] is “more active than TMZ”.

Regarding `CSCn1nnc2c(C(N)=O)ncn2c1=O` [KK-001, 3-(Methylthio)methyl-8-carbamoylimidazotetrazin-4-one], the GI50 in the assay with Glioma U373M (MGMT+) (setting [2]) was 59 µM; with Glioma U373M (MGMT+) (setting [3]) it was 54 µM; in the assay on Glioma SNB19V (MGMT−) (setting [2]), 118 µM; in the assay with Glioma SNB19V (MGMT−) (setting [3]) it was 96.5 µM; in the assay on Glioma U373V (MGMT low) (setting [2]) it was 45 µM; with Glioma U373V (MGMT low) (setting [3]), 73.4 µM. Besides, the “activity compared with TMZ, in words” value in assay [1] is on record as “more active than TMZ”.

For `CCC(Cn1nnc2c(C(N)=O)ncn2c1=O)=NOC` [XX-001, 3-(2-Methoxyimino-butyl)-4-oxo-3,4-dihydro-imidazo[5,1-d][1,2,3,5]tetrazine-8-carboxylic acid amide], the GI50 in the assay on Glioma SNB19M (MGMT+) is 47.2 µM and 47.9 µM; in the assay on Glioma U373V (MGMT low) it was 18.5 µM and 10.6 µM. For the same compound, the figures for the “activity compared with TMZ, in words” value (with Glioma U373V (MGMT low) (MGMT− glioma cell line U373V); in assay [1]) were “enhanced activity” and “more active than TMZ”, respectively.
